# Results as given in article PMC7262789 (Journal of medicinal chemistry, 2019).
# Target: T1, recombinant sEH-P domain (N-terminal domain of sEH) (Homo sapiens, UniProt P34913)
# T1 sequence (P34913 1-222): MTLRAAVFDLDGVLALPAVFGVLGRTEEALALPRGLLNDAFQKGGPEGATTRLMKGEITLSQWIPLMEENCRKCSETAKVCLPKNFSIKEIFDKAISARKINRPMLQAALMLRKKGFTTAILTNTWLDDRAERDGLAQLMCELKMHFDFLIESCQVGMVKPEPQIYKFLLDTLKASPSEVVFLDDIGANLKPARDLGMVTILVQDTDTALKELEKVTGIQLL
# Experiment: FDP-based phosphatase assay, isolated sEH-P domain
# Format: biochemical
# Conditions: FDP substrate, recombinant sEH-P domain
row,Compound,inhibitory potency toward sEH-P (SAR statement in words)
1,"O=C(O)CCc1nc(-c2cccc(F)c2)c(-c2ccccc2)o1 [20d, 3-(4-(3-Fluorophenyl)-5-phenyloxazol-2-yl)propanoic Acid]",retained similar potency as 5
2,"O=C(O)c1ccccc1-c1nc(-c2ccc(Cl)c(Cl)c2)c(-c2ccccc2)o1 [22c, 2-(4-(3,4-Dichlorophenyl)-5-phenyloxazol-2-yl)benzoic Acid]",did not retain this high potency
3,"O=C(O)CCc1nc(-c2ccccc2F)c(-c2ccccc2)o1 [20a, 3-(4-(2-Fluorophenyl)-5-phenyloxazol-2-yl)propanoic Acid]",poorly tolerated
4,"NC(=O)CCc1nc(-c2ccccc2)c(-c2ccccc2)o1 [compound 12, 3-(4,5-Diphenyloxazol-2-yl)propanamide]",complete loss of activity
5,"O=C(O)CCc1nc(-c2ccc(F)cc2)c(-c2ccccc2)o1 [20e, 3-(4-(4-Fluorophenyl)-5-phenyloxazol-2-yl)propanoic Acid]",only slightly diminished the potency
6,"O=C(O)CCCc1nc(-c2ccc(Cl)c(Cl)c2)c(-c2ccncc2)o1 [28a, 4-(4-(3,4-Dichlorophenyl)-5-(pyridin-4-yl)oxazol-2-yl)butanoic Acid]",not favored
7,"O=C(O)CCc1nc(-c2cc(Cl)cc(Cl)c2)c(-c2ccccc2)o1 [20m, 3-(4-(3,5-Dichlorophenyl)-5-phenyloxazol-2-yl)propanoic Acid]",did not lead to potency improvement
8,"N#Cc1cccc(-c2nc(CCC(=O)O)oc2-c2ccccc2)c1 [20c, 3-(4-(3-Cyanophenyl)-5-phenyloxazol-2-yl)propanoic Acid]",retained similar potency as 5
9,"O=C(O)CCCc1nc(-c2ccc(Cl)c(Cl)c2)c(-c2cccnc2)o1 [28b, 4-(4-(3,4-Dichlorophenyl)-5-(pyridin-3-yl)oxazol-2-yl)butanoic Acid]",not favored
10,"O=C(O)c1ccc(-c2nc(-c3ccc(Cl)c(Cl)c3)c(-c3ccccc3)o2)cc1 [22e, 4-(4-(3,4-Dichlorophenyl)-5-phenyloxazol-2-yl)benzoic Acid]",did not retain this high potency
11,"O=C(O)CCc1nc(-c2ccc(Cl)cc2)c(-c2ccccc2)o1 [20h, 3-(4-(4-Chlorophenyl)-5-phenyloxazol-2-yl)propanoic Acid]",slightly enhanced inhibitory potency
12,"O=C(O)CCCc1nc(-c2ccc(Cl)c(Cl)c2)co1 [compound 25, 4-(4-(3,4-Dichlorophenyl)oxazol-2-yl)butanoic Acid]",potency dropped dramatically
13,"COc1ccc(-c2nc(CCC(=O)O)oc2-c2ccccc2)cc1 [20i, 3-(4-(4-Methoxyphenyl)-5-phenyloxazol-2-yl)propanoic Acid]",decreased the activity
14,"O=C(O)CCc1nc(-c2ccc(C(F)(F)F)cc2)c(-c2ccccc2)o1 [20f, 3-(5-Phenyl-4-(4-(trifluoromethyl)phenyl)oxazol-2-yl)propanoic Acid]",loss of activity
15,"O=C(O)CCCc1nc(-c2ccc(Cl)c(Cl)c2)c(Br)o1 [compound 26, 4-(5-Bromo-4-(3,4-dichlorophenyl)oxazol-2-yl)butanoic Acid]",partially restored
16,"N#Cc1cccc(-c2oc(CCCC(=O)O)nc2-c2ccc(Cl)c(Cl)c2)c1 [28g, 4-(5-(3-Cyanophenyl)-4-(3,4-dichlorophenyl)oxazol-2-yl)butanoic Acid]",slight preference
17,"O=C(O)CCc1nc(-c2ccccc2Cl)c(-c2ccccc2)o1 [20b, 3-(4-(2-Chlorophenyl)-5-phenyloxazol-2-yl)propanoic Acid]",poorly tolerated
18,"C#Cc1cccc(-c2oc(CCCC(=O)O)nc2-c2ccc(Cl)c(Cl)c2)c1 [28j, 4-(4-(3,4-Dichlorophenyl)-5-(3-ethynylphenyl)oxazol-2-yl)butanoic Acid]",slight preference
19,"O=C(O)CSc1nc(-c2ccccc2)c(-c2ccccc2)o1 [compound 9, 2-((4,5-Diphenyloxazol-2-yl)thio)acetic Acid]",slightly diminished the potency
20,"O=C(O)CCCc1nc(-c2ccc(Cl)c(Cl)c2)c(-c2cccc(F)c2)o1 [28e, 4-(4-(3,4-Dichlorophenyl)-5-(3-fluorophenyl)oxazol-2-yl)butanoic Acid]",slight preference
21,"N#Cc1ccc(-c2nc(CCC(=O)O)oc2-c2ccccc2)cc1 [20g, 3-(4-(4-Cyanophenyl)-5-phenyloxazol-2-yl)propanoic Acid]",loss of activity
22,"O=C(O)CCc1nc(-c2ccc(Cl)cc2Cl)c(-c2ccccc2)o1 [20l, 3-(4-(2,4-Dichlorophenyl)-5-phenyloxazol-2-yl)propanoic Acid]",did not lead to potency improvement

# Same assay, conditions: rigidization of the ethyl linker by a double bond
row,Compound,loss of potency [fold]
1,"O=C(O)/C=C/c1nc(-c2ccc(Cl)c(Cl)c2)c(-c2ccccc2)o1 [22a, 3-(4-(3,4-Dichlorophenyl)-5-phenyloxazol-2-yl)acrylic Acid]",2

# Same assay, conditions: second chlorine at meta position, compared with 20h
row,Compound,increase in sEH-P inhibition
1,"O=C(O)CCc1nc(-c2ccc(Cl)c(Cl)c2)c(-c2ccccc2)o1 [20k, 3-(4-(3,4-Dichlorophenyl)-5-phenyloxazol-2-yl)propanoic Acid]",more than 10 fold

# Target: T2, N-terminal domain of sEH (sEH-P) (Homo sapiens, UniProt P34913)
# T2 sequence (P34913 2-224): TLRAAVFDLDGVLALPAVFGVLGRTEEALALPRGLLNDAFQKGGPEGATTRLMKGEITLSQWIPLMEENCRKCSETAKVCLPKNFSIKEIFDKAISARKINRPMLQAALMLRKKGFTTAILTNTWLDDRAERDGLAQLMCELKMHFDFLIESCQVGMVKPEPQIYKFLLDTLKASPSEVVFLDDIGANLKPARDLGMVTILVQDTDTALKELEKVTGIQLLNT
# Experiment: Differential scanning fluorimetry
# Format: binding
# Conditions: inhibitor 50 μM
row,Compound,stabilization of the N-terminal domain in DSF
1,"CC(=O)N[C@@H](CSC/C=C(\C)CC/C=C(\C)CCC=C(C)C)C(=O)O [compound 2, N-acetyl-S-farnesyl-L-cysteine]",able to stabilize
2,"O=C(Nc1ccc(I)cc1)NC1CCCCC1 [CIU, N-cyclohexyl-N′-(4-iodophenyl)urea, reference compound]",no stabilizing effect

# Target: T3, C-terminal domain of sEH (sEH-H) (Homo sapiens, UniProt P34913)
# T3 sequence (P34913 235-555 limits assumed): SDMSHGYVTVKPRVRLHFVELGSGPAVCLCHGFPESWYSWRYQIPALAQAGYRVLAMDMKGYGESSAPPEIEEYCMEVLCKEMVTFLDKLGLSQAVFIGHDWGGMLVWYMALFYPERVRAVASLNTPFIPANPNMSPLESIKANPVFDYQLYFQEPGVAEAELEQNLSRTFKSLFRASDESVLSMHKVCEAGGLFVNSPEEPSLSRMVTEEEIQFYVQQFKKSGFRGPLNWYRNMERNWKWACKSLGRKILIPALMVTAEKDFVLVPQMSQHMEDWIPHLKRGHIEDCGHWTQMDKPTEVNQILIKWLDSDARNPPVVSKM
# Experiment: Differential scanning fluorimetry
# Format: binding
# Conditions: inhibitor 50 μM
row,Compound,stabilization of the C-terminal domain in DSF
1,"O=C(Nc1ccc(I)cc1)NC1CCCCC1 [CIU, N-cyclohexyl-N′-(4-iodophenyl)urea, reference compound]",significantly increased

# Target: T4, full-length human sEH (Homo sapiens, UniProt P34913)
# T4 sequence (P34913 1-555): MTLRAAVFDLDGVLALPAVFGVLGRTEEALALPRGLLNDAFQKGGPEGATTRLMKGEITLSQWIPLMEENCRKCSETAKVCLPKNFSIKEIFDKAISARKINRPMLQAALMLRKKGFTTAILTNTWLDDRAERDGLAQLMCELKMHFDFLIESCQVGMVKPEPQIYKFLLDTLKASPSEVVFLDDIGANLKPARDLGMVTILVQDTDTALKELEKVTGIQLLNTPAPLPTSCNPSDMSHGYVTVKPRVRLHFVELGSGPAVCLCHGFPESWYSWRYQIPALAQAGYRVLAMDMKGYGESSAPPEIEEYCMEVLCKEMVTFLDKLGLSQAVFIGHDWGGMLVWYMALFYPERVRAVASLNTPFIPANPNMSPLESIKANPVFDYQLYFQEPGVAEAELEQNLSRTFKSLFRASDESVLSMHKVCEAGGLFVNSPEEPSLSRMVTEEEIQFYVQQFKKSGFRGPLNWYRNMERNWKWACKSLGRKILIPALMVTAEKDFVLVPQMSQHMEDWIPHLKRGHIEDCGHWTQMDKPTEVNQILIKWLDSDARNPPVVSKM
# Experiment: DiFMUP-based phosphatase assay, full-length sEH
# Conditions: substrate
row,Km [µM],Compound
1,628,"Cc1cc(=O)oc2c(F)c(OP(=O)(O)O)c(F)cc12 [DiFMUP, reference compound]"

# Target: T5, isolated N-terminal domain of sEH (sEH-P) (Homo sapiens, UniProt P34913)
# T5 sequence (P34913 1-222): T1 sequence (P34913 1-222)
# Experiment: DiFMUP-based phosphatase assay, isolated N-terminal domain
# Conditions: substrate
row,Km [µM],Compound
1,220,"Cc1cc(=O)oc2c(F)c(OP(=O)(O)O)c(F)cc12 [DiFMUP, reference compound]"
